Data reported in PMC9637228, “Elucidating host cell response pathways and repurposing therapeutics for SARS-CoV-2 and other coronaviruses” (Scientific Reports, 2022).
Entries after “also recorded” stand apart in the source; their conditions may differ. Structures can show the parent of a compound that is named as a salt. Where two headings read alike, the source gives them in different places.

What was measured:
[1] = test system: SARS-CoV-2; assay: microbe, parasite or virus in culture; format: cell-based; details: for IC50: SARS-CoV-2 infected Vero cells; for anti-SARS-CoV-2 activity (in words): Vero cell assay
[2] = test system: Vero cells; assay: Cytotoxicity (cell viability) in the SARS-CoV-2 Vero cell assay; details: Table 2 test
[3] = Cytotoxicity in uninfected, compound-treated MRC5 cells (Cell-Titer Glo); details: human
[4] = test system: HCoV-OC43; assay: Anti-HCoV-OC43 compound testing in MRC5 cells (Cell-Titer Glo); format: cell-based; details: for activity against HCoV-OC43 (in words): MRC5 cells
Description: (§1) Human lung fibroblast MRC5 cells were cultured in a 96-well plate at 10,000 cells/well in EMEM + 10% FBS overnight. The next day the culture medium was removed from each well and compounds in EMEM + 2% FBS + 0.5% DMSO were added. Each drug was tested on its own 96 well plate. Each plate contained 3 wells of uninfected cells without DMSO, 3 wells of uninfected cells with 0.5% DMSO, 3 wells of infected cells with no DMSO, and 3 wells of infected cells with 0.5% DMSO. Experimental compounds were tested in triplicate at each concentration. Tanespimycin, bortezomib, and homoharringtonine were tested using 2 µM starting concentration, 8-point, threefold serial dilution. After a 1-h pre-incubation with testing compounds, HCoV-229E or HCoV-OC43 viruses at an MOI of 0.01 were added to the culture with compounds for another 1 h. Cell-Titer Glo assay was added after additional incubation time with compounds of interest (HCoV-229E for 96 h and HCoV-OC43 for 120 h). Assay readout was performed using luminescence measurement on a Tecan Spark plate reader.
(§2) CC50 values were determined by applying nonlinear fit of luminescence readouts from uninfected, compound-treated wells against compound concentration. Likewise, EC50 values were determined by nonlinear fit of luminescence readouts from virus-infected, compound-treated wells. Nonlinear regression models were applied for derivation of EC50 and CC50 values respectively, based on built-in equations of Prism Version 8.2.1 (GraphPad Software, San Diego, CA). SI calculated as the ratio of CC50 to EC50.

[5] = test system: HCoV-229E; assay: Anti-HCoV-229E compound testing in MRC5 cells (Cell-Titer Glo); format: cell-based; details: for EC50: Human coronavirus 229E; for activity against HCoV-229E (in words): MRC5 cells
Description: as §1, §2

[6] = human, in vivo
[7] = Cytotoxicity (cell viability) in the SARS-CoV-2 Vero cell assay; details: African green monkey, Vero cells
[8] = in vitro; details: African green monkey, Vero cells
[9] = Clinical dosing estimation of compounds (clinical exposure, Cmax); details: calculated from published Cmax and molecular weight
[10] = test system: SARS-CoV-2; details: read-out: reported IC50; cited from earlier work
[11] = test system: MERS-CoV; details: 10 μM, Huh-7 cells; cited from earlier work
[12] = test system: SARS-CoV-1; details: 10 μM, Huh-7 cells; cited from earlier work
[13] = test system: SARS-CoV-2; details: 10 μM, Huh-7 cells; cited from earlier work
[14] = Severe acute respiratory syndrome coronavirus 2, Vero, Round 1, 24 h, 1-h preincubation, read-out: IC50
[15] = Severe acute respiratory syndrome coronavirus 2, Vero, Round 2, 24 h, 1-h preincubation, read-out: IC50
[16] = uninfected MRC5 lung fibroblast cells
[17] = Betacoronavirus 1, MRC5 cells infected with HCoV-OC43, MOI 0.01, 120 h, read-out: EC50
[18] = MRC5 cells infected with HCoV-229E, MOI 0.01, 96 h, read-out: EC50
[19] = Severe acute respiratory syndrome coronavirus 2, Vero, 24 h, Table 2 test (average reversal score predicted compounds)
[20] = Severe acute respiratory syndrome coronavirus 2, Vero, Round 1, 24 h, 1-h preincubation
[21] = Severe acute respiratory syndrome coronavirus 2, Vero, Round 2, 24 h, 1-h preincubation

N[C@@H]1CCCN(c2c(/C=C3\SC(=O)NC3=O)cccc2-c2ccccc2)C1 [AZD-1208] gave an IC50 ([1]; Table 2 test (average reversal score predicted compounds), read-out: IC50) of 27.3 µM and a CC50 [2] greater than 50 µM.
In the case of CC(C)C[C@H](NC(=O)[C@H](Cc1ccccc1)NC(=O)c1cnccn1)B(O)O [Bortezomib], the IC50 [1, 14] is reported as 1.39 µM, the IC50 [1, 15] is reported as 3.42 µM and the “anti-SARS-CoV-2 activity (in words)” value [1] is reported as “showed efficacy in controlling viral load”. The CC50 at 96 h [3, 16] was 0.536 µM, the CC50 at 120 h [3, 16] was 0.591 µM and the EC50 [4, 17] was 0.666 µM. For the same molecule, the “activity against HCoV-OC43 (in words)” value [4] was “no activity”, the “activity against HCoV-OC43 (in words)” value ([4]; listed as bortezomib) was “did not find bortezomib to be effective” and the EC50 [5, 18] was 0.252 µM. The “activity against HCoV-229E (in words)” value [5] was “no activity”, the “activity against HCoV-229E (in words)” value ([5]; listed as bortezomib) was “did not find bortezomib to be effective” and the “Clinical Exposure” value [6] was 0.29 µM. The Clinical Exposure ([6]; iv) was “approximately 580 nM”, the CC50 at 24 h ([7]; CC50, Round 1) was greater than 50 µM and the CC50 at 24 h ([7]; CC50, Round 2) was greater than 50 µM.
With CCN(CC)CCCC(C)Nc1ccnc2cc(Cl)ccc12 (stereo not shown) [Chloroquine] the IC50 [1, 19] was 11.3 µM, the IC50 [1, 20] was 12 µM and the IC50 [1, 21] was 9.8 µM. It also gave a CC50 ([8]; CC50, Round 1) of 128 µM, a CC50 ([8]; CC50, Round 2) greater than 150 µM and a CC50 ([8]; CC50, Table 2 test) greater than 150 µM.
In the case of Cc1nc(Nc2ncc(C(=O)Nc3c(C)cccc3Cl)s2)cc(N2CCN(CCO)CC2)n1 [Dasatinib], the IC50 [1, 14] is reported as 19.7 µM and the CC50 at 24 h ([7]; CC50, Round 1) is reported as 13.2 µM.
For CC(C)c1cc(-c2n[nH]c(=O)n2-c2ccc3c(ccn3C)c2)c(O)cc1O [Ganetespib], the IC50 [1, 15] was 35.5 µM, the “anti-SARS-CoV-2 activity (in words)” value [1] was “no activity; also recorded: neither tanespimycin nor a second generation HSP90 inhibitor ganetespib exhibited anti-viral efficacy” and the CC50 at 24 h ([7]; CC50, Round 2) was 28.9 µM.
In the case of COC(=O)C[C@](O)(CCCC(C)(C)O)C(=O)O[C@@H]1C(OC)=C[C@]23CCCN2CCc2cc4c(cc2[C@H]13)OCO4 [Homoharringtonine], the “average EC50/IC50” value ([1]; SARS-CoV-2, Vero cells, average of the rounds) is reported as “under 300 nM”, the IC50 [1, 20] is reported as 0.16 µM and the IC50 [1, 21] is reported as 0.26 µM. For the same molecule, the “anti-SARS-CoV-2 activity (in words)” value [1] was “highly effective”, the CC50 at 96 h [3, 16] was 0.205 µM and the CC50 at 120 h [3, 16] was 0.167 µM. For the same molecule, the EC50 ([4]; Betacoronavirus 1, OC43, MRC5) was less than 0.1 µM, the EC50 [4, 17] was 0.126 µM and the “activity against HCoV-OC43 (in words)” value [4] was “highly effective”. For the same molecule, the EC50 ([5]; MRC5) was less than 0.1 µM, the EC50 [5, 18] was 0.0511 µM and the “activity against HCoV-229E (in words)” value [5] was “highly effective”. The “Clinical Exposure” value [9] was 0.046 µM, the CC50 at 24 h ([7]; CC50, Round 1) was 2.14 µM and the CC50 at 24 h ([7]; CC50, Round 2) was 6.22 µM.
For CC(C)C[C@H](NC(=O)CNC(=O)c1cc(Cl)ccc1Cl)B(O)O [Ixazomib], the IC50 [1, 15] was 11.7 µM, the “anti-SARS-CoV-2 activity (in words)” value [1] was “showed efficacy in controlling viral load” and the CC50 at 24 h ([7]; CC50, Round 2) was greater than 50 µM.
With CCOC(=O)C1=C(C)NC(C)=C(C(=O)OCC)C1c1ccccc1/C=C/C(=O)OC(C)(C)C [Lacidipine] the IC50 [1, 14] was 14.9 µM, the “Clinical Exposure” value [6] was 0.003 to 0.013 µM and the CC50 at 24 h ([7]; CC50, Round 1) was 20.2 µM.
For CC[C@@H](C(N)=O)N1CCCC1=O [Levetiracetam], the IC50 [1, 19] was greater than 50 µM, the “anti-SARS-CoV-2 activity (in words)” value [1] was “no anti-viral activity” and the “anti-SARS-CoV-2 activity (in words)” value ([1]; listed as levetiracetam) was “did not show meaningful anti-SARS-CoV-2 activity; also recorded: did not result in a meaningful effect on viral production”. The CC50 at 24 h ([7]; CC50, Table 2 test) was greater than 50 µM.
With Cc1cccc(C)c1OCC(=O)N[C@@H](Cc1ccccc1)[C@@H](O)C[C@H](Cc1ccccc1)NC(=O)[C@H](C(C)C)N1CCCNC1=O [Lopinavir] the IC50 [1, 19] was 12.6 µM, the IC50 [1, 21] was 13.5 µM and the CC50 at 24 h ([7]; CC50, Round 2) was greater than 50 µM. The CC50 at 24 h ([7]; CC50, Table 2 test) was greater than 50 µM.
With Cc1ccc(Cl)c(Nc2ccccc2C(=O)O)c1Cl [Meclofenamic acid sodium salt] the CC50 at 24 h ([7]; CC50, Table 2 test) was greater than 50 µM.
In the case of C#CCC(Cc1cnc2nc(N)nc(N)c2n1)c1ccc(C(=O)N[C@@H](CCC(=O)O)C(=O)O)cc1 (stereo partly shown) [Pralatrexate], the IC50 [10] is given as 0.008 µM.
CCC(CC)COC(=O)[C@H](C)N[P@](=O)(OC[C@H]1O[C@@](C#N)(c2ccc3c(N)ncnn23)[C@H](O)[C@@H]1O)Oc1ccccc1 [Remdesivir] gave an IC50 [1, 19] of 8.58 µM, an IC50 [1, 20] of 12.1 µM and an IC50 [1, 21] of 7.45 µM. It also gave a CC50 at 24 h ([7]; CC50, Round 1) greater than 50 µM, a CC50 at 24 h ([7]; CC50, Round 2) greater than 50 µM and a CC50 at 24 h ([7]; CC50, Table 2 test) greater than 50 µM.
With O=C(O)c1ccccc1Nc1cccc(OCc2ccc3ccccc3n2)c1 [SR-2640 hydrochloride] the IC50 [1, 19] was 24.2 µM, the “anti-SARS-CoV-2 activity (in words)” value [1] was “did not result in a meaningful effect on viral production” and the CC50 at 24 h ([7]; CC50, Table 2 test) was greater than 50 µM.
With N[C@@H](CC(=O)N1CCn2c(nnc2C(F)(F)F)C1)Cc1cc(F)c(F)cc1F [Sitagliptin] the IC50 ([1]; Severe acute respiratory syndrome coronavirus 2, Vero, 24 h, Table 2 test (average reversal score predicted compounds), read-out: IC50) was greater than 50 µM, the “anti-SARS-CoV-2 activity (in words)” value [1] was “did not show meaningful anti-SARS-CoV-2 activity” and the CC50 at 24 h ([7]; CC50, Table 2 test) was greater than 50 µM.
For C=CCNC1=C2C[C@@H](C)C[C@H](OC)[C@H](O)[C@@H](C)/C=C(\C)[C@H](OC(N)=O)[C@@H](OC)/C=C\C=C(/C)C(=O)NC(=CC1=O)C2=O [Tanespimycin], the “inhibition of viral activities of MERS-CoV” value [11] is listed as “effectively inhibited”, the IC50 [1, 15] is listed as 31.3 µM and the “anti-SARS-CoV-2 activity (in words)” value [1] is listed as “no activity”. The “anti-SARS-CoV-2 activity (in words)” value ([1]; listed as tanespimycin) was “neither tanespimycin nor a second generation HSP90 inhibitor ganetespib exhibited anti-viral efficacy”, the CC50 at 96 h [3] was 0.182 µM and the CC50 at 120 h [3] was 0.253 µM. The EC50 ([4]; Betacoronavirus 1, OC43, MRC5) was less than 0.001 µM, the EC50 [4, 17] was 0.0019 µM and the “activity against HCoV-OC43 (in words)” value [4] was “effective”. For the same molecule, the “activity against HCoV-OC43 (in words)” value ([4]; listed as tanespimycin) was “highly potent”, the EC50 ([5]; MRC5) was less than 0.001 µM and the EC50 ([5]; MRC5, 96 h) was 0.0036 µM. The “activity against HCoV-229E (in words)” value [5] was “effective”, the “activity against HCoV-229E (in words)” value ([5]; listed as tanespimycin) was “highly potent” and the CC50 at 24 h ([7]; CC50, Round 2) was greater than 50 µM. For the same molecule, the “inhibition of viral activities of SARS-CoV-1” value [12] was “effectively inhibited” and the “inhibition of viral activities of SARS-CoV-2” value [13] was “effectively inhibited”.
In the case of CC(=O)Nc1cccc(-n2c(=O)n(C3CC3)c(=O)c3c(Nc4ccc(I)cc4F)n(C)c(=O)c(C)c32)c1 [Trametinib], the IC50 [1, 14] is reported as 15 µM, the “Clinical Exposure” value [9] is reported as 0.045 µM and the CC50 at 24 h ([7]; CC50, Round 1) is reported as greater than 50 µM.
